Experiments:
SK-MEL-28 = test: Antiproliferative activity against human SK-MEL-28 cells assessed as cell growth inhibition at 10 uM incubated for 24 hrs by sulforhodamine B assay; type: functional; conditions: read-out: GI
786-0 = test: Antiproliferative activity against human 786-0 cells assessed as cell growth inhibition at 10 uM incubated for 24 hrs by sulforhodamine B assay; type: functional; conditions: read-out: GI
A549 = test: Antiproliferative activity against human A549 cells assessed as cell growth inhibition at 10 uM incubated for 24 hrs by sulforhodamine B assay; type: functional; conditions: read-out: GI
BT-549 = test: Antiproliferative activity against human BT-549 cells assessed as cell growth inhibition at 10 uM incubated for 24 hrs by sulforhodamine B assay; type: functional; conditions: read-out: GI
UO-31 = test: Antiproliferative activity against human UO-31 cells assessed as cell growth inhibition at 10 uM incubated for 24 hrs by sulforhodamine B assay; type: functional; conditions: read-out: GI
Malme-3M = test: Antiproliferative activity against human Malme-3M cells assessed as cell growth inhibition at 10 uM incubated for 24 hrs by sulforhodamine B assay; type: functional; conditions: read-out: GI
HT-29 = test: Antiproliferative activity against human HT-29 cells assessed as cell growth inhibition at 10 uM incubated for 24 hrs by sulforhodamine B assay; type: functional; conditions: read-out: GI
IGROV-1 = test: Antiproliferative activity against human IGROV-1 cells assessed as cell growth inhibition at 10 uM incubated for 24 hrs by sulforhodamine B assay; type: functional; conditions: read-out: GI
CCRF-CEM = test: Antiproliferative activity against human CCRF-CEM cells assessed as cell growth inhibition at 10 uM incubated for 24 hrs by sulforhodamine B assay; type: functional; conditions: read-out: GI
MDA-MB-231 [1] = test: Antiproliferative activity against human MDA-MB-231 cells assessed as cell growth inhibition at 10 uM incubated for 24 hrs by sulforhodamine B assay; type: functional; conditions: read-out: GI
MCF7 [2] = test: Antiproliferative activity against human MCF7 cells assessed as reduction in cell viability incubated for 24 hrs by sulforhodamine B assay; type: functional, cell-based; conditions: MCF7, 24 h
NCI-H522 = test: Antiproliferative activity against human NCI-H522 cells assessed as cell growth inhibition at 10 uM incubated for 24 hrs by sulforhodamine B assay; type: functional; conditions: read-out: GI
SK-MEL-5 = test: Antiproliferative activity against human SK-MEL-5 cells assessed as cell growth inhibition at 10 uM incubated for 24 hrs by sulforhodamine B assay; type: functional; conditions: read-out: GI
PC-3 = test: Antiproliferative activity against human PC-3 cells assessed as cell growth inhibition at 10 uM incubated for 24 hrs by sulforhodamine B assay; type: functional; conditions: read-out: GI
HOP-62 = test: Antiproliferative activity against human HOP-62 cells assessed as cell growth inhibition at 10 uM incubated for 24 hrs by sulforhodamine B assay; type: functional; conditions: read-out: GI
MOLT-4 = test: Antiproliferative activity against human MOLT-4 cells assessed as cell growth inhibition at 10 uM incubated for 24 hrs by sulforhodamine B assay; type: functional; conditions: read-out: GI
T47D [3] = test: Antiproliferative activity against human T47D cells assessed as cell growth inhibition at 10 uM incubated for 24 hrs by sulforhodamine B assay; type: functional; conditions: read-out: GI
SF-268 = test: Antiproliferative activity against human SF-268 cells assessed as cell growth inhibition at 10 uM incubated for 24 hrs by sulforhodamine B assay; type: functional; conditions: read-out: GI
NCI-H23 = test: Antiproliferative activity against human NCI-H23 cells assessed as cell growth inhibition at 10 uM incubated for 24 hrs by sulforhodamine B assay; type: functional; conditions: read-out: GI
K562 = test: Antiproliferative activity against human K562 cells assessed as cell growth inhibition at 10 uM incubated for 24 hrs by sulforhodamine B assay; type: functional; conditions: read-out: GI
SNB-19 = test: Antiproliferative activity against human SNB-19 cells assessed as cell growth inhibition at 10 uM incubated for 24 hrs by sulforhodamine B assay; type: functional; conditions: read-out: GI
SF-295 = test: Antiproliferative activity against human SF-295 cells assessed as cell growth inhibition at 10 uM incubated for 24 hrs by sulforhodamine B assay; type: functional; conditions: read-out: GI
DU-145 = test: Antiproliferative activity against human DU-145 cells assessed as cell growth inhibition at 10 uM incubated for 24 hrs by sulforhodamine B assay; type: functional; conditions: read-out: GI
KM12 = test: Antiproliferative activity against human KM12 cells assessed as cell growth inhibition at 10 uM incubated for 24 hrs by sulforhodamine B assay; type: functional; conditions: read-out: GI
SW-620 = test: Antiproliferative activity against human SW-620 cells assessed as cell growth inhibition at 10 uM incubated for 24 hrs by sulforhodamine B assay; type: functional; conditions: read-out: GI
CAKI-1 = test: Antiproliferative activity against human CAKI-1 cells assessed as cell growth inhibition at 10 uM incubated for 24 hrs by sulforhodamine B assay; type: functional; conditions: read-out: GI
RPMI-8226 = test: Antiproliferative activity against human RPMI-8226 cells assessed as cell growth inhibition at 10 uM incubated for 24 hrs by sulforhodamine B assay; type: functional; conditions: read-out: GI
UACC-62 = test: Antiproliferative activity against human UACC-62 cells assessed as cell growth inhibition at 10 uM incubated for 24 hrs by sulforhodamine B assay; type: functional; conditions: read-out: GI
ACHN = test: Antiproliferative activity against human ACHN cells assessed as cell growth inhibition at 10 uM incubated for 24 hrs by sulforhodamine B assay; type: functional; conditions: read-out: GI
OVCAR-3 = test: Antiproliferative activity against human OVCAR-3 cells assessed as cell growth inhibition at 10 uM incubated for 24 hrs by sulforhodamine B assay; type: functional; conditions: read-out: GI
NCI-H460 = test: Antiproliferative activity against human NCI-H460 cells assessed as cell growth inhibition at 10 uM incubated for 24 hrs by sulforhodamine B assay; type: functional; conditions: read-out: GI
SR = test: Antiproliferative activity against human SR cells assessed as cell growth inhibition at 10 uM incubated for 24 hrs by sulforhodamine B assay; type: functional; conditions: read-out: GI
MCF7 [4] = test: Antiproliferative activity against human MCF7 cells assessed as cell growth inhibition at 10 uM incubated for 24 hrs by sulforhodamine B assay; type: functional; conditions: read-out: GI
RXF 393 = test: Antiproliferative activity against human RXF 393 cells assessed as cell growth inhibition at 10 uM incubated for 24 hrs by sulforhodamine B assay; type: functional; conditions: read-out: GI
T47D [5] = test: Antiproliferative activity against human T47D cells assessed as reduction in cell viability incubated for 24 hrs by sulforhodamine B assay; type: functional, cell-based
LOX IMVI = test: Antiproliferative activity against human LOX IMVI cells assessed as cell growth inhibition at 10 uM incubated for 24 hrs by sulforhodamine B assay; type: functional; conditions: read-out: GI
MDA-MB-231 [6] = test: Antiproliferative activity against human MDA-MB-231 cells assessed as reduction in cell viability incubated for 24 hrs by sulforhodamine B assay; type: functional, cell-based; conditions: MDA-MB-231, 24 h
NCI-H226 = test: Antiproliferative activity against human NCI-H226 cells assessed as cell growth inhibition at 10 uM incubated for 24 hrs by sulforhodamine B assay; type: functional; conditions: read-out: GI
SN12C = test: Antiproliferative activity against human SN12C cells assessed as cell growth inhibition at 10 uM incubated for 24 hrs by sulforhodamine B assay; type: functional; conditions: read-out: GI
SNB-75 = test: Antiproliferative activity against human SNB-75 cells assessed as cell growth inhibition at 10 uM incubated for 24 hrs by sulforhodamine B assay; type: functional; conditions: read-out: GI
M14 = test: Antiproliferative activity against human M14 cells assessed as cell growth inhibition at 10 uM incubated for 24 hrs by sulforhodamine B assay; type: functional; conditions: read-out: GI
NCI/ADR-RES = test: Antiproliferative activity against human NCI-ADR-RES cells assessed as cell growth inhibition at 10 uM incubated for 24 hrs by sulforhodamine B assay; type: functional; conditions: read-out: GI
TK-10 = test: Antiproliferative activity against human TK-10 cells assessed as cell growth inhibition at 10 uM incubated for 24 hrs by sulforhodamine B assay; type: functional; conditions: read-out: GI
OVCAR-8 = test: Antiproliferative activity against human OVCAR-8 cells assessed as cell growth inhibition at 10 uM incubated for 24 hrs by sulforhodamine B assay; type: functional; conditions: read-out: GI
HCT-15 = test: Antiproliferative activity against human HCT-15 cells assessed as cell growth inhibition at 10 uM incubated for 24 hrs by sulforhodamine B assay; type: functional; conditions: read-out: GI
HCT-116 = test: Antiproliferative activity against human HCT-116 cells assessed as cell growth inhibition at 10 uM incubated for 24 hrs by sulforhodamine B assay; type: functional; conditions: read-out: GI
U-251 = test: Antiproliferative activity against human U-251 cells assessed as cell growth inhibition at 10 uM incubated for 24 hrs by sulforhodamine B assay; type: functional; conditions: read-out: GI
HOP-92 = test: Antiproliferative activity against human HOP-92 cells assessed as cell growth inhibition at 10 uM incubated for 24 hrs by sulforhodamine B assay; type: functional; conditions: read-out: GI
SF-539 = test: Antiproliferative activity against human SF-539 cells assessed as cell growth inhibition at 10 uM incubated for 24 hrs by sulforhodamine B assay; type: functional; conditions: read-out: GI
Carbonic anhydrase 9 = Carbonic anhydrase 9 (Homo sapiens, UniProt Q16790); test: Inhibition of human CA9 preincubated for 15 mins by phenol red dye based stopped flow CO2 hydration assay
MDA-MB-435 = test: Antiproliferative activity against human MDA-MB-435 cells assessed as cell growth inhibition at 10 uM incubated for 24 hrs by sulforhodamine B assay; type: functional; conditions: read-out: GI
OVCAR-4 = test: Antiproliferative activity against human OVCAR-4 cells assessed as cell growth inhibition at 10 uM incubated for 24 hrs by sulforhodamine B assay; type: functional; conditions: read-out: GI

Cc1ccc(-c2nc(SCC(=O)c3ccccc3)nc(Nc3ccc(S(N)(=O)=O)cc3)c2C#N)cc1
inhibition of growth at 10 µM (SK-MEL-28): 18.9%
inhibition of growth at 10 µM (786-0): 53.7%
inhibition of growth at 10 µM (A549): 12.6%
inhibition of growth at 10 µM (BT-549): 26.2%
inhibition of growth at 10 µM (UO-31): 25.1%
inhibition of growth at 10 µM (Malme-3M): 66.4%
inhibition of growth at 10 µM (HT-29): 7.65%
inhibition of growth at 10 µM (IGROV-1): 13.7%
inhibition of growth at 10 µM (CCRF-CEM): 18%
inhibition of growth at 10 µM (MDA-MB-231 [1]): 67%
IC50 (MCF7 [2]): > 100 µM
inhibition of growth at 10 µM (NCI-H522): 12.9%
inhibition of growth at 10 µM (SK-MEL-5): 24.5%
inhibition of growth at 10 µM (PC-3): 7.4%
inhibition of growth at 10 µM (HOP-62): 73.8%
inhibition of growth at 10 µM (MOLT-4): 13.4%
inhibition of growth at 10 µM (T47D [3]): 16.1%
inhibition of growth at 10 µM (SF-268): 23.3%
inhibition of growth at 10 µM (NCI-H23): 65.5%
inhibition of growth at 10 µM (K562): 29.9%
inhibition of growth at 10 µM (SNB-19): 22.8%
inhibition of growth at 10 µM (SF-295): 63.3%
inhibition of growth at 10 µM (DU-145): 39.3%
inhibition of growth at 10 µM (KM12): 27.2%
inhibition of growth at 10 µM (SW-620): 16.2%
inhibition of growth at 10 µM (CAKI-1): 48.5%
inhibition of growth at 10 µM (RPMI-8226): 34.6%
inhibition of growth at 10 µM (UACC-62): 19.7%
inhibition of growth at 10 µM (ACHN): 10.3%
inhibition of growth at 10 µM (OVCAR-3): 96%
inhibition of growth at 10 µM (NCI-H460): 34.8%
inhibition of growth at 10 µM (SR): 43.1%
inhibition of growth at 10 µM (MCF7 [4]): 34.9%
inhibition of growth at 10 µM (RXF 393): 48.2%
IC50 (T47D [5]): > 100 µM
inhibition of growth at 10 µM (LOX IMVI): 84.5%
IC50 (MDA-MB-231 [6]): > 100 µM
inhibition of growth at 10 µM (NCI-H226): 28.6%
inhibition of growth at 10 µM (SN12C): 37%
inhibition of growth at 10 µM (SNB-75): 20%
inhibition of growth at 10 µM (M14): 63.3%
inhibition of growth at 10 µM (NCI/ADR-RES): 18.3%
inhibition of growth at 10 µM (TK-10): 32.5%
inhibition of growth at 10 µM (OVCAR-8): 65.4%
inhibition of growth at 10 µM (HCT-15): 27.9%
inhibition of growth at 10 µM (HCT-116): 64.1%
inhibition of growth at 10 µM (U-251): 52.6%
inhibition of growth at 10 µM (HOP-92): 62.4%
inhibition of growth at 10 µM (SF-539): 81.7%
Ki (Carbonic anhydrase 9): 0.0074 µM
inhibition of growth at 10 µM (MDA-MB-435): 53%
inhibition of growth at 10 µM (OVCAR-4): 75.7%

Reference: ChEMBL document CHEMBL5038625, “Application of the dual-tail approach for the design and synthesis of novel Thiopyrimidine-Benzenesulfonamide hybrids as selective carbonic anhydrase inhibitors” (Eur J Med Chem, 2022)
